Test results taken from paper PMC8158245, “Novel chalcone/aryl carboximidamide hybrids as potent anti-inflammatory via inhibition of prostaglandin E2 and inducible NO synthase activities: design, synthesis, molecular docking studies and ADMET prediction” (Journal of Enzyme Inhibition and Medicinal Chemistry, 2021).
Values joined by “and” are separate entries in the source; they are usually repeats but may differ in a detail not shown here. Identical values can stand only once. Like-named read-outs stand apart in the source and are kept apart here.

Legend:
[1] = test system: LPS-induced NO production in RAW 264.7 cells; experiment: Griess assay for NO release from LPS-stimulated RAW 264.7 cells; format: cell-based; conditions: Mus musculus, RAW264.7; for IC50: LPS-induced RAW 264.7 cells; for inhibition at 5 µM: compounds at 5 µM, 2 h before LPS, RAW 264.7 cells, read-out: NO Inhibition rates (%) ± SD
Method: Equal volumes of Griess reagent and the supernatant, obtained from treated RAW264.7 cells with the compounds 2 h before LPS induction, were mixed for 10 min at room temperature in the dark. The absorbance was measured at 540 nm using ELISA plate reader and the nitrite concentration was calculated from sodium nitrite standard curve. The percentage inhibition (%) is calculated as absorbance at 540 nm of (LPS-compounds)/absorbance at 540 nm of (LPS-control) ×100[47]^,[48].

[2] = MTT cytotoxicity assay on RAW 264.7 cells; format: cell-based; conditions: mouse; for IC50 at 20 h: with LPS; for IC50: without LPS
Method: MTT assay was used to assess the cell viability of RAW 264.7 cells cultured in RPMI-1640 complete media. […] Afterwards, 5 µl of MTT solution were added and incubated for further 4 h. Finally, 150 ul of dimethyl sulfoxide (DMSO) were added and the optical density was assessed at 570 nm using an ELISA plate reader.

[3] = test system: PGE2 production in RAW 264.7 cells; experiment: PGE2 concentration by ELISA in LPS-treated RAW 264.7 cells; format: cell-based; conditions: Mus musculus, RAW264.7; LPS-induced RAW 264.7 cells
Method: After seeding and incubation of RAW 264.7 cells for 24 h, then the cells were treated with the compounds (4c, 4d, 6a, 6c, 6d and 6e) at different concentrations and with LPS (1 µg/ml) for another 24 h. The concentration of prostaglandin E2 (PGE2) was measured in the culture media using ELISA kit (R&D Systems, Minneapolis, MN)[50].

bovine COX-1 = target: T1, bovine COX-1 (Ovis aries, UniProt P05979); experiment: In vitro COX-1 inhibition assay (Cayman kit); format: biochemical
T1 construct: purchased Cayman Chemical 560101
T1 sequence (P05979 25-600): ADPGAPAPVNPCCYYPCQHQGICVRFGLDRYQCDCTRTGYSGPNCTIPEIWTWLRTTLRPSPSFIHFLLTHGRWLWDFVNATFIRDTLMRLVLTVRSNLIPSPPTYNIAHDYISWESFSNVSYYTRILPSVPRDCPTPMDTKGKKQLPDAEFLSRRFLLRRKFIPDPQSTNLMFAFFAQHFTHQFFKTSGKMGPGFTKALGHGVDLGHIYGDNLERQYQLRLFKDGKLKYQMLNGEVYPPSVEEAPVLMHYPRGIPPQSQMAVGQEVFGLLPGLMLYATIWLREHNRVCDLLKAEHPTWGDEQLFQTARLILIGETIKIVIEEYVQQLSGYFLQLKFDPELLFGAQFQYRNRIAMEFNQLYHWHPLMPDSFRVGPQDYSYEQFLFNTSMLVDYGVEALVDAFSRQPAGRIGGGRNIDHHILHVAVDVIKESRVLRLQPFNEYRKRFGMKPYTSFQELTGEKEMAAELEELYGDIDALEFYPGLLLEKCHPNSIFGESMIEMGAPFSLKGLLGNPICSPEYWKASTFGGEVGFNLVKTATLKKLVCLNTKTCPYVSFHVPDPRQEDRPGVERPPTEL

COX-2 [4] = experiment: In vitro COX-2 inhibition assay (Cayman kit); format: biochemical, bovine; conditions: selectivity index from COX 1 and COX 2 IC50
[5] = test system: carrageenan-induced paw edoema; experiment: Carrageenan-induced rat paw edoema; format: in vivo, Wistar albino rats; conditions: for % of edoema inhibition (% mean ± SEM), 1 h / % of edoema inhibition (% mean ± SEM), 2 h / % of edoema inhibition (% mean ± SEM), 3 h / % of edoema inhibition (% mean ± SEM), 4 h: rat, 50 mg/kg oral; for % of edoema inhibition (% mean ± SEM), 1 h: 1 h after carrageenan; for % of edoema inhibition (% mean ± SEM), 2 h: 2 h after carrageenan; for % of edoema inhibition (% mean ± SEM), 3 h: 3 h after carrageenan; for % of edoema inhibition (% mean ± SEM), 4 h: 4 h after carrageenan
Method: The anti-inflammatory activity of the inspiring active compounds in vitro (4c, 4d, 6a, 6c, 6d and 6e) were further estimated in vivo using the carrageenan-induced paw edoema test. […] The paw thickness was assessed using Vernier calliper after carrageenan injection for 1,2, 3 and 4 h. Wistar albino rats (males weighing 120–140 g, six rats per group) were grouped as follows: Group 1 (Control) rats were received the vehicle. […] The percentage inhibition of edoema thickness was calculated at each time interval in comparison to the control group.

iNOS [6] = target: T2, iNOS (Mus musculus, UniProt P29477); experiment: iNOS enzymatic activity in LPS-induced RAW 264.7 cells; format: cell-based
T2 construct: endogenous in cells; host or cells: RAW 264.7 cells induced with LPS
T2 sequence (P29477 1-1144): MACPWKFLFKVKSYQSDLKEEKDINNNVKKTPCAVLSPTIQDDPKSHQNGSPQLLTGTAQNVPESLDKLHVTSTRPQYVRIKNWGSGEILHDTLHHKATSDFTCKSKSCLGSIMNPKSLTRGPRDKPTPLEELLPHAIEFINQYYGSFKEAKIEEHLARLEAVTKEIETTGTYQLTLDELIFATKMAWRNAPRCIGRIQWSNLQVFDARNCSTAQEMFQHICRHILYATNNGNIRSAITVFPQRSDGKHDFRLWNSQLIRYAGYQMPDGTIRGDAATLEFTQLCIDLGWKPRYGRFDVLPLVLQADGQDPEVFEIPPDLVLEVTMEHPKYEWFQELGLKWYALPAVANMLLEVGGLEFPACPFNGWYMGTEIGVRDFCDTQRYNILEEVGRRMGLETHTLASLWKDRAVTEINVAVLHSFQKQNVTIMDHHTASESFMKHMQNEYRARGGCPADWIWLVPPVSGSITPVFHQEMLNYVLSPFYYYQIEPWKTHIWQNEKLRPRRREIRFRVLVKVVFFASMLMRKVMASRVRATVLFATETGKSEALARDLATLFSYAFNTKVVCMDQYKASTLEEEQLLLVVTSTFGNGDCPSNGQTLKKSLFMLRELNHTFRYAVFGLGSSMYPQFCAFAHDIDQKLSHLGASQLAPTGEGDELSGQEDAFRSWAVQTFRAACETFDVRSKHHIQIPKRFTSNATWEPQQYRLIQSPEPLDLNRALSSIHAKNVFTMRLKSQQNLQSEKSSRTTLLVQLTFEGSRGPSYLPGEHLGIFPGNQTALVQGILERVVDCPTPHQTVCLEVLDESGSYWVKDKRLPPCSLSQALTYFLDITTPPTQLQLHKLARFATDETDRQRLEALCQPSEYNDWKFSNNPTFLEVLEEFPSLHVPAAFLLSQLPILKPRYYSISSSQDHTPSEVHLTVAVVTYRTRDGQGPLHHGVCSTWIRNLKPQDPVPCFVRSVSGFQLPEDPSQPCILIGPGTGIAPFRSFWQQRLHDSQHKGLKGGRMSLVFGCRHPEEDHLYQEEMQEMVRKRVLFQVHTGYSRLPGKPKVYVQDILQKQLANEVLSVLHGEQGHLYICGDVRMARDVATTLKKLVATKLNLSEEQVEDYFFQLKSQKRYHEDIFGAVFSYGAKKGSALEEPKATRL
Method: Then, the NOS assay reaction solution (100 µl/well) was added and incubated for an extra 2 h at 37 °C. The fluorescence with excitation wavelength at 485 nm and emission wavelength at 528 nm was measured using a fluorescent microplate reader.

COX-2 [7] = test system: COX-2; design: method as in PMID 30878890; conditions: cited from earlier work; for IC50: Figure 1
15-LOX = test system: 15-LOX; design: method as in PMID 30878890; conditions: Figure 1; cited from earlier work
PGE2 = conditions: cited from earlier work
iNOS [8] = target: T2, iNOS; conditions: cited from earlier work
[9] = test system: LPS-induced NO production; conditions: cited from earlier work
[10] = four hours after carrageenan injection

| SMILES | IC50 [1] | inhibition at 5 µM [1] | IC50 at 20 h [2] | IC50 [2] | IC50 [3] | IC50 (bovine COX-1) | SI (COX-2 [4]) | % of edoema inhibition (% mean ± SEM), 1 h [5] | % of edoema inhibition (% mean ± SEM), 2 h [5] | IC50 (iNOS [6]) | other results |
| --- | --- | --- | --- | --- | --- | --- | --- | --- | --- | --- | --- |
| COc1ccc(C(=O)/C=C/c2ccc(OCC(=O)O/N=C(\N)c3ccccc3)cc2)cc1 [Compound 6a, N’-(2-{4-[(1E)-3-(4-Methoxyphenyl)-3-oxoprop-1-en-1-yl]phenoxy}acetoxy) benzenecarboximidamide] | 13.6 µM | 55.5 ± 2.4% | > 80 µM | > 80 µM | 0.0481 µM | 20.9 ± 1.09 µM | 19 | 14.36 ± 3.11% | 24.33 ± 2.26% | 6.32 µM | % of edoema inhibition (% mean ± SEM), 3 h ([5]; 50 mg/kg): 45.83% and 45.83 ± 2.74%; % of edoema inhibition (% mean ± SEM), 4 h [5]: 55.74 ± 2.59%; melting point: 172 to 173 °C |
| COc1ccc(C(=O)/C=C/c2ccc(OCC(=O)O/N=C(\N)c3ccc(OC)c(OC)c3)cc2)cc1 [Compound 6d, N’-(2-{4-[(1E)-3-(4-Methoxyphenyl)-3-oxoprop-2-en-1-yl]phenoxy}acetoxy) -3,4-dimethoxybenzenecarboximidamide] | 4.36 µM | 78.2 ± 3.4% | > 80 µM | > 80 µM | 0.0212 µM | 17.8 ± 0.93 µM | 0.17 | 13.25 ± 2.04% | 38.43 ± 3.62% | 1.91 µM | anti-inflammatory activity relative to celecoxib [5, 10]: ~7 fold; anti-inflammatory activity relative to indomethacin [5, 10]: ~1.5 fold; % of edoema inhibition (% mean ± SEM), 3 h ([5]; 50 mg/kg): 65.31% and 65.31 ± 2.64%; % of edoema inhibition (% mean ± SEM), 4 h ([5]; 50 mg/kg): 78.51% and 78.53% and 78.53 ± 3.28% |
| COc1ccc(C(=O)/C=C/c2ccc(OCC(=O)O/N=C(\N)c3ccc([N+](=O)[O-])cc3)cc2)cc1 [Compound 6e, N’-(2-{4-[(1E)-3-(4-Methoxyphenyl)-3-oxoprop-2-en-1-yl]phenoxy}acetoxy)-4-nitrobenzenecarboximidamide] | 15.8 µM | 57.9 ± 1.3% | > 80 µM | > 80 µM | 0.0451 µM | 12.7 ± 0.66 µM | 7.43 | 10.23 ± 3.17% | 19.34 ± 2.45% | 7.15 µM | % of edoema inhibition (% mean ± SEM), 4 h [5]: 33.21 ± 3.15%; melting point: 193 to 194 °C |
| COc1ccc2cc(C(C)C(=O)O/N=C(\N)c3ccc(Cl)cc3)ccc2c1 (centres unmarked) [IV] | – | – | – | – | – | – | – | – | – | – | IC50 (COX-2 [7]): 7.15 nM; IC50 (15-LOX): 1.77 nM |
| COc1ccc2c(c1)c(CC(=O)O/N=C(\N)c1ccc(OC)c(OC)c1)c(C)n2C(=O)c1ccc(Cl)cc1 [VII] | – | – | – | – | – | – | – | – | – | – | IC50 (PGE2): 0.0345 µM; IC50 (iNOS [8]; Figure 1, read-out: iNOS IC50): 3.26 µM; IC50 ([9]; Figure 1, read-out: NO IC50): 6.53 µM |
| COc1ccc2c(c1)c(CC(=O)O/N=C(\N)c1ccccc1)c(C)n2C(=O)c1ccc(Cl)cc1 [VI] | – | – | – | – | – | – | – | – | – | – | IC50 (PGE2): 0.029 µM; IC50 (iNOS [8]; as printed in the introduction, read-out: iNOS activity IC50): 2.31 µM; IC50 ([9]; as printed in the introduction, read-out: LPS-induced NO production IC50): 10.7 µM |
| COc1ccc2cc(C(C)C(=O)O/N=C(\N)c3ccc(OC)c(OC)c3)ccc2c1 (centres unmarked) [V] | – | – | – | – | – | – | – | – | – | – | IC50 (COX-2 [7]): 6.4 nM; COX-2 inhibitory potency relative to celecoxib (COX-2 [7]): approximately 6.6 folds; IC50 (15-LOX): 2.07 nM |
